Results published in ChEMBL document CHEMBL4825673, “Total and Semisyntheses of Polymyxin Analogues with 2-Thr or 10-Thr Modifications to Decipher the Structure-Activity Relationship and Improve the Antibacterial Activity” (J Med Chem, 2021).
≈ marks a conversion by molar mass, not a printed value. Starred links: 1 amine or outer side, 2 acyl side, 3 side chain; linkers in the order of their positions; H or OH if unused. Positions of bridges follow the written chain, without caps; N, C: chain ends. Non-standard residues stand in square brackets, D forms with d. Residues, ends and D or L forms follow the SMILES beside them. *: point of attachment. Benzoyl(4-OPh) = O=C(c1ccc(Oc2ccccc2)cc1)*; Heptanoyl(6-Me) = CC(C)CCCCC(=O)*; NH(2-ClPh) = Clc1ccccc1N*; X1 = CC[C@H](C)CCCCC(=O)*; Dab = NCC[C@H](N)C(=O)O; CO = O=C([*:1])[*:2]

How the values were obtained:
Type in all cases: functional
Conditions in all cases: read-out: MIC100
Klebsiella pneumoniae = experiment: Antibacterial activity against Klebsiella pneumoniae assessed as inhibition of bacterial growth incubated for 24 hrs by broth microdilution method
Acinetobacter baumannii = experiment: Antibacterial activity against Acinetobacter baumannii assessed as inhibition of bacterial growth incubated for 24 hrs by broth microdilution method
Pseudomonas aeruginosa [1] = experiment: Antibacterial activity against Pseudomonas aeruginosa assessed as inhibition of bacterial growth incubated for 24 hrs by broth microdilution method
Escherichia coli = experiment: Antibacterial activity against Escherichia coli assessed as inhibition of bacterial growth incubated for 24 hrs by broth microdilution method
Moraxella catarrhalis = experiment: Antibacterial activity against Moraxella catarrhalis assessed as inhibition of bacterial growth incubated for 24 hrs by broth microdilution method
Pseudomonas aeruginosa [2] = experiment: Antibacterial activity against Pseudomonas aeruginosa PAO1 assessed as inhibition of bacterial growth incubated for 24 hrs by broth microdilution method

| MIC (Klebsiella pneumoniae) | MIC (Acinetobacter baumannii) | MIC (Pseudomonas aeruginosa [1]) | MIC (Escherichia coli) | MIC (Moraxella catarrhalis) | MIC (Pseudomonas aeruginosa [2]) | Compound |
| --- | --- | --- | --- | --- | --- | --- |
| > 64 µg/mL | 2 µg/mL (≈ 1.64 µM) | 0.125 µg/mL (≈ 0.102 µM) | 4 µg/mL (≈ 3.28 µM) | 8 µg/mL (≈ 6.56 µM) | 2 µg/mL (≈ 1.64 µM) | CCCCCCCC(=O)N[C@@H](CCN)C(=O)N[C@@H](CCSC)C(=O)N[C@@H](CCN)C(=O)N[C@H]1CCNC(=O)[C@H]([C@@H](C)O)NC(=O)[C@H](CCN)NC(=O)[C@H](CCN)NC(=O)[C@H](CC(C)C)NC(=O)[C@@H](Cc2ccccc2)NC(=O)[C@H](CCN)NC1=O |
|  |  |  |  |  | 1 µg/mL (≈ 0.767 µM) | CC(C)CCCCC(=O)N[C@@H](CCN)C(=O)N[C@H](C(=O)N[C@@H](CCN)C(=O)N[C@H]1CCNC(=O)[C@H]([C@@H](C)O)NC(=O)[C@H](CCN)NC(=O)[C@H](CCN)NC(=O)[C@H](CC(C)C)NC(=O)[C@@H](Cc2ccccc2)NC(=O)[C@H](CCN)NC1=O)[C@@H](C)OC(=O)[C@@H](N)CC(N)=O |
| > 16 µg/mL | 16 µg/mL (≈ 13.5 µM) | 0.5 µg/mL (≈ 0.421 µM) | 8 µg/mL (≈ 6.74 µM) | 8 µg/mL (≈ 6.74 µM) | 4 µg/mL (≈ 3.37 µM) | CC(C)CCCCC(=O)N[C@@H](CCN)C(=O)N[C@H](C(=O)N[C@@H](CCN)C(=O)N[C@H]1CCNC(=O)[C@H]([C@@H](C)O)NC(=O)[C@H](CCN)NC(=O)[C@H](CCN)NC(=O)[C@H](CC(C)C)NC(=O)[C@@H](Cc2ccccc2)NC(=O)[C@H](CCN)NC1=O)C(C)C |
| > 32 µg/mL | 8 µg/mL (≈ 6.5 µM) | 0.5 µg/mL (≈ 0.406 µM) | 4 µg/mL (≈ 3.25 µM) | 16 µg/mL (≈ 13 µM) | 16 µg/mL (≈ 13 µM) | CC(=O)O[C@H](C)[C@H](NC(=O)[C@H](CCN)NC(=O)CCCCC(C)C)C(=O)N[C@@H](CCN)C(=O)N[C@H]1CCNC(=O)[C@H]([C@@H](C)O)NC(=O)[C@H](CCN)NC(=O)[C@H](CCN)NC(=O)[C@H](CC(C)C)NC(=O)[C@@H](Cc2ccccc2)NC(=O)[C@H](CCN)NC1=O |
| > 32 µg/mL | 16 µg/mL (≈ 12.9 µM) | 0.5 µg/mL (≈ 0.405 µM) | 4 µg/mL (≈ 3.24 µM) | 4 µg/mL (≈ 3.24 µM) | 4 µg/mL (≈ 3.24 µM) | CC(C)CCCCC(=O)N[C@@H](CCN)C(=O)N[C@@H](Cc1ccccc1)C(=O)N[C@@H](CCN)C(=O)N[C@H]1CCNC(=O)[C@H]([C@@H](C)O)NC(=O)[C@H](CCN)NC(=O)[C@H](CCN)NC(=O)[C@H](CC(C)C)NC(=O)[C@@H](Cc2ccccc2)NC(=O)[C@H](CCN)NC1=O |
|  |  |  |  |  | 2 µg/mL (≈ 1.5 µM) | CC[C@H](C)CCCCC(=O)N[C@@H](CCN)C(=O)N[C@H](C(=O)N[C@@H](CCN)C(=O)N[C@H]1CCNC(=O)[C@H]([C@@H](C)O)NC(=O)[C@H](CCN)NC(=O)[C@H](CCN)NC(=O)[C@H](CC(C)C)NC(=O)[C@@H](Cc2ccccc2)NC(=O)[C@H](CCN)NC1=O)[C@@H](C)OC(=O)[C@@H](N)CCSC |
|  |  |  |  |  | 2 µg/mL (≈ 1.52 µM) | CC(C)CCCCC(=O)N[C@@H](CCN)C(=O)N[C@H](C(=O)N[C@@H](CCN)C(=O)N[C@H]1CCNC(=O)[C@H]([C@@H](C)O)NC(=O)[C@H](CCN)NC(=O)[C@H](CCN)NC(=O)[C@H](CC(C)C)NC(=O)[C@@H](Cc2ccccc2)NC(=O)[C@H](CCN)NC1=O)[C@H](C)OC(=O)[C@@H](N)CCC(=O)O |
|  |  |  |  |  | 2 µg/mL (≈ 1.47 µM) | CC[C@H](C)CCCCC(=O)N[C@@H](CCN)C(=O)N[C@H](C(=O)N[C@@H](CCN)C(=O)N[C@H]1CCNC(=O)[C@H]([C@@H](C)O)NC(=O)[C@H](CCN)NC(=O)[C@H](CCN)NC(=O)[C@H](CC(C)C)NC(=O)[C@@H](Cc2ccccc2)NC(=O)[C@H](CCN)NC1=O)[C@@H](C)OC(=O)[C@@H](N)CCCNC(=N)N |
|  |  |  |  |  | 2 µg/mL (≈ 1.5 µM) | CC[C@H](C)CCCCC(=O)N[C@@H](CCN)C(=O)N[C@H](C(=O)N[C@@H](CCN)C(=O)N[C@H]1CCNC(=O)[C@H]([C@@H](C)O)NC(=O)[C@H](CCN)NC(=O)[C@H](CCN)NC(=O)[C@H](CC(C)C)NC(=O)[C@@H](Cc2ccccc2)NC(=O)[C@H](CCN)NC1=O)[C@@H](C)OC(=O)[C@@H](N)CCCCN |
|  |  |  |  |  | 2 µg/mL (≈ 1.52 µM) | CC[C@H](C)CCCCC(=O)N[C@@H](CCN)C(=O)N[C@H](C(=O)N[C@@H](CCN)C(=O)N[C@H]1CCNC(=O)[C@H]([C@@H](C)O)NC(=O)[C@H](CCN)NC(=O)[C@H](CCN)NC(=O)[C@H](CC(C)C)NC(=O)[C@@H](Cc2ccccc2)NC(=O)[C@H](CCN)NC1=O)[C@@H](C)OC(=O)[C@@H](N)CC(N)=O |
| 1 µg/mL (≈ 0.832 µM) | 2 µg/mL (≈ 1.66 µM) | 0.25 µg/mL (≈ 0.208 µM) | 1 µg/mL (≈ 0.832 µM) | 8 µg/mL (≈ 6.66 µM) | 2 µg/mL (≈ 1.66 µM) | CC(C)CCCCC(=O)N[C@@H](CCN)C(=O)N[C@@H](CC(C)C)C(=O)N[C@@H](CCN)C(=O)N[C@H]1CCNC(=O)[C@H]([C@@H](C)O)NC(=O)[C@H](CCN)NC(=O)[C@H](CCN)NC(=O)[C@H](CC(C)C)NC(=O)[C@@H](Cc2ccccc2)NC(=O)[C@H](CCN)NC1=O |
|  |  |  |  |  | 2 µg/mL (≈ 1.53 µM) | CC(C)CCCCC(=O)N[C@@H](CCN)C(=O)N[C@H](C(=O)N[C@@H](CCN)C(=O)N[C@H]1CCNC(=O)[C@H]([C@@H](C)O)NC(=O)[C@H](CCN)NC(=O)[C@H](CCN)NC(=O)[C@H](CC(C)C)NC(=O)[C@@H](Cc2ccccc2)NC(=O)[C@H](CCN)NC1=O)[C@@H](C)OC(=O)[C@@H](N)CC(=O)O |
|  |  |  |  |  | 1 µg/mL (≈ 0.75 µM) | CC[C@H](C)CCCCC(=O)N[C@@H](CCN)C(=O)N[C@H](C(=O)N[C@@H](CCN)C(=O)N[C@H]1CCNC(=O)[C@H]([C@@H](C)O)NC(=O)[C@H](CCN)NC(=O)[C@H](CCN)NC(=O)[C@H](CC(C)C)NC(=O)[C@@H](Cc2ccccc2)NC(=O)[C@H](CCN)NC1=O)[C@@H](C)OC(=O)[C@@H](N)CCC(=O)O |
| > 32 µg/mL | 2 µg/mL (≈ 1.66 µM) | 0.125 µg/mL (≈ 0.104 µM) | 8 µg/mL (≈ 6.64 µM) | > 32 µg/mL | 1 µg/mL (≈ 0.83 µM) | CC(C)C[C@@H]1NC(=O)[C@@H](Cc2ccccc2)NC(=O)[C@H](CCN)NC(=O)[C@@H](NC(=O)[C@H](CCN)NC(=O)[C@@H](NC(=O)[C@H](CCN)NC(=O)CCCCCCCN)[C@@H](C)O)CCNC(=O)[C@H]([C@@H](C)O)NC(=O)[C@H](CCN)NC(=O)[C@H](CCN)NC1=O |
|  |  |  |  |  | 4 µg/mL (≈ 3.18 µM) | CC(C)C[C@@H]1NC(=O)[C@@H](Cc2ccccc2)NC(=O)[C@H](CCN)NC(=O)[C@@H](NC(=O)[C@H](CCN)NC(=O)[C@@H](NC(=O)[C@H](CCN)NC(=O)c2ccc(Oc3ccccc3)cc2)[C@@H](C)O)CCNC(=O)[C@H]([C@@H](C)O)NC(=O)[C@H](CCN)NC(=O)[C@H](CCN)NC1=O ({Benzoyl(4-OPh)}-[Dab]T[Dab][Dab][Dab][dF]L[Dab][Dab]T; lactam 4-C) |
|  |  |  |  |  | 4 µg/mL (≈ 3.29 µM) | CC(C)C[C@@H]1NC(=O)[C@@H](Cc2ccccc2)NC(=O)[C@H](CCN)NC(=O)[C@@H](NC(=O)[C@H](CCN)NC(=O)[C@@H](NC(=O)[C@H](CCN)NC(=O)Nc2ccccc2Cl)[C@@H](C)O)CCNC(=O)[C@H]([C@@H](C)O)NC(=O)[C@H](CCN)NC(=O)[C@H](CCN)NC1=O ({NH(2-ClPh)-CO}-[Dab]T[Dab][Dab][Dab][dF]L[Dab][Dab]T; lactam 4-C) |

| Compound | MIC (Klebsiella pneumoniae) | MIC (Acinetobacter baumannii) | MIC (Pseudomonas aeruginosa [1]) | MIC (Escherichia coli) | MIC (Moraxella catarrhalis) | MIC (Pseudomonas aeruginosa [2]) |
| --- | --- | --- | --- | --- | --- | --- |
| CC[C@H](C)CCCCC(=O)N[C@@H](CCN)C(=O)N[C@H](C(=O)N[C@@H](CCN)C(=O)N[C@H]1CCNC(=O)[C@H]([C@@H](C)O)NC(=O)[C@H](CCN)NC(=O)[C@H](CCN)NC(=O)[C@H](CC(C)C)NC(=O)[C@@H](Cc2ccccc2)NC(=O)[C@H](CCN)NC1=O)[C@@H](C)O (X1-[Dab]T[Dab][Dab][Dab][dF]L[Dab][Dab]T; lactam 4-C) |  |  |  |  |  | 2 µg/mL (≈ 1.66 µM) |
| CC(C)CCCCC(=O)N[C@@H](CCN)C(=O)N[C@H](C(=O)N[C@@H](CCN)C(=O)N[C@H]1CCNC(=O)[C@H]([C@@H](C)O)NC(=O)[C@H](CCN)NC(=O)[C@H](CCN)NC(=O)[C@H](CC(C)C)NC(=O)[C@@H](Cc2ccccc2)NC(=O)[C@H](CCN)NC1=O)[C@@H](C)O [POLYMYXIN B2] ({Heptanoyl(6-Me)}-[Dab]T[Dab][Dab][Dab][dF]L[Dab][Dab]T; lactam 4-C) |  |  |  |  |  | 1 µg/mL (≈ 0.841 µM) |
